In patent US5304604A, “Hydroxamic acid collagenase inhibotors” (British Bio-technology Limited, priority 1988, dated 1994):

Legend:
collagenase = target: T1, collagenase (Homo sapiens, UniProt P03956); assay: Collagenase Inhibition Activity (procedure of Cawston and Barrett); format: biochemical; settings: for IC50: acetylated 14C collagen, 37°, 16 hours, pH 7.5, read-out: IC50 (inhibitor concentration effecting 50% inhibition of the collagenase)
T1 sequence (P03956 100-469): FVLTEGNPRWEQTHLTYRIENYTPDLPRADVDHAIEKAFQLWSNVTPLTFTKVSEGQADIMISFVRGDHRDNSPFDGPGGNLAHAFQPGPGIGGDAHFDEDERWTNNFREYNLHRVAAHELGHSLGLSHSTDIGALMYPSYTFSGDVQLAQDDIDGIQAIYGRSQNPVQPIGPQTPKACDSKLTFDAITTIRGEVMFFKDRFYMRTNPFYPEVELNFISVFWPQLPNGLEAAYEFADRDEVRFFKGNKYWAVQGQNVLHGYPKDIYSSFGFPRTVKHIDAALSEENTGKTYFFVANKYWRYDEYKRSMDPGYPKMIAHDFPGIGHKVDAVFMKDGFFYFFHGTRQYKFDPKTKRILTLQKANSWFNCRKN

stromelysin = stromelysin (Homo sapiens, UniProt P08254); assay: Stromelysin Inhibition Activity (procedure of Cawston et al); format: biochemical; settings: for protoglycanase inhibiting activity, in words: protoglycanase = stromelysin (b7)
Chain of stromelysin (P08254 100-477): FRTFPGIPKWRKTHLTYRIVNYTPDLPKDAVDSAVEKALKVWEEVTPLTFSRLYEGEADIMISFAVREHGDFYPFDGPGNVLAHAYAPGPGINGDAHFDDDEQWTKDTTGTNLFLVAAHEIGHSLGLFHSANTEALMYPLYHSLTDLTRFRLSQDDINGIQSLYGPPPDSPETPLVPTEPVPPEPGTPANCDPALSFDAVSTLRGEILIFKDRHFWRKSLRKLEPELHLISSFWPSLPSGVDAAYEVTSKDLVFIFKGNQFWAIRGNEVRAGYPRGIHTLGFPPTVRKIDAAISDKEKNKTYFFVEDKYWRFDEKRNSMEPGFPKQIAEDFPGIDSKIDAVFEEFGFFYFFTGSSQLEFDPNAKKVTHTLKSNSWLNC
Procedure: The potency of compounds of general formula I to act as inhibitors of collagenase (a metalloprotease involved in tissue degradation) was determined by the procedure of Cawston and Barrett, (Anal. Biochem., 99, 340-345, 1979) and their potency to act as inhibitors of stromelysin was determined using the procedure of Cawston et al (Biochem. J., 195, 159-165 1981), both of which techniques are to be described more fully in the examples and, to the extent that the law allows, are incorporated by reference herein.

Row | IC50 (collagenase) | collagenase-inhibiting activity, in words (collagenase) | IC50 (stromelysin; 14C acetylated casein, 37° C., 16 hours, pH 7.5, read-out: IC50 (inhibitor concentration effecting 50% inhibition of the stromelysin)) | protoglycanase inhibiting activity, in words (stromelysin) | Structure (SMILES)
1 | 0.07 µM | – | – | – | CC(C)C[C@H](CC(=O)NO)C(=O)N[C@@H](Cc1ccccc1)C(=O)NCCN1CCCC1 [Example 3, [4-(N-Hydroxyamino)-2R-isobutylsuccinyl]-L-phenylalanine-N-[1-(2-aminoethyl)-pyrrolidine]amide]
2 | 0.015 µM | good | 0.05 µM | good | CC(C)C[C@@H](C(=O)N[C@@H](Cc1ccccc1)C(=O)NCCN1CCOCC1)[C@H](C)C(=O)NO [Example 11, [4-(N-Hydroxyamino)-2R-isobutyl-3S-methylsuccinyl]-L-phenylalanine-N-[4-(2-aminoethyl)-morpholino]amide]
3 | 0.02 µM | good | – | good | CC(C)C[C@H](CC(=O)NO)C(=O)N[C@@H](Cc1ccccc1)C(=O)NCc1cccnc1 [Example 6, [4-(N-Hydroxyamino)-2R-isobutylsuccinyl]-L-phenylalanine-N-(3-aminomethylpyridine)amide]
